Results from patent US11608335B2, “Somatostatin modulators and uses thereof” (CRINETICS PHARMACEUTICALS, INC., priority 2018, dated 2023).
pEC50: −log10 of the molar value. Where two headings read alike, the source gives them in different places.

Assays:
[1] = biological target: T1, human somatostatin receptor subtype 2 (Homo sapiens, UniProt P30874); assay: cAMP assay for SST2R (inhibition of cAMP via human SST2 receptor); assay type: cell-based; details: Table B, read-out: SST2 potency
T1 construct: expressed in transfected cells
Source text: cAMP Assay Protocol for SST2R:

[2] = biological target: T2, human somatostatin receptor subtype 3 (Homo sapiens, UniProt P32745); assay: cAMP assay for SST3R (inhibition of cAMP via human SST3 receptor); assay type: cell-based; details: from inhibition of cAMP via human SST5 receptor and human SST3 receptor
T2 construct: expressed in transfected cells
Source text: cAMP Assay Protocol for SST3R:

[3] = Liver microsomal stability assay; assay type: in vitro ADME; details: both sexes, human, pooled human liver microsomes; read-out: HLM Stability t½
Protocol: Example B-2: Liver Microsomal Stability Assay Protocol
The in vitro stabilities of compounds of interest were determined for various species using pooled male and female human, pooled male Sprague-Dawley rat, pooled male Cynomolgus monkey, and pooled male Beagle dog liver microsomes at microsomal protein concentrations of 0.5 mg/mL. Incubations were carried out in a potassium phosphate buffer (50 mM). The NADPH-generating system was composed of NADP+ (1 mM), magnesium chloride (3 mM), EDTA (1 mM), glucose-6-phosphate (5 mM) and glucose-6-phosphate dehydrogenase (1 Unit/mL) for all experiments. Compounds of interest in DMSO/acetonitrile were added to achieve a final incubation concentration of 1 μM (final DMSO content was 0.1% v/v and final acetonitrile content was 0.9%). The final incubation volume was 400 μL. Incubations were conducted at 37° C. for 0, 5, 10, 20, 40 and 60 minutes in a shaking water bath and terminated by removing 50 μL of incubation mixture and adding to 100 μL of ice cold acetonitrile containing internal standard. Following precipitation by centrifugation at 3500 rpm and 4° C. for 30 minutes, compounds of interest and internal standard were analyzed in the resultant supernatant using a multiple reaction monitoring (MRM) LC-MS/MS method. MS conditions were optimized for each analyte.
(§1) Table E illustrates representative human liver microsomal stability and time dependent CYP2D6 inhibition (TDI) of exemplary compounds.

[4] = biological target: T3, Cytochrome P450 (CYP) 2D6 enzyme (Homo sapiens, UniProt P10635); assay: Cytochrome P450 (CYP) 2D6 enzyme time dependent inhibition (TDI) assay; assay type: in vitro ADME; details: human liver microsomes
T3 construct: using pooled male and female human liver microsomes; from tissue; host or cells: pooled male and female human liver microsomes
Protocol: Example B-3: Cytochrome P450 (CYP) 2D6 Enzyme Time Dependent Inhibition (TDI) Assay Protocol
The NADPH-generating system mix was composed of potassium phosphate buffer pH 7.4 (50 mM), NADP+ (1 mM), magnesium chloride (3 mM), EDTA (1 mM), glucose-6-phosphate (5 mM), glucose-6-phosphate dehydrogenase (1 Unit/mL), human liver microsomes (0.1 mg/mL) and water. Compounds of interest in DMSO serial diluted to six different concentrations (final DMSO content of 0.1% v/v) were added to the NADPH-generating system. CYP 2D6 substrate Dextromethorphan was added at a final incubation concentration of 5 μM. The final incubation volume was 200 μL. Incubations were conducted at 37° C. for 10 minutes in a shaking water bath to evaluate the drug candidates as […] of CYP 2D6. In a separate test plate, drug candidates were pre-incubated at 37° C. for 30 minutes in a shaking water bath in NADPH-generating system mix in the absence of Dextromethorphan substrate to allow for the formation of metabolites. This plate was removed from the water bath and placed on ice for 5 minutes. Dextromethorphan substrate was then added and the plate was incubated at 37° C. for 10 minutes in a shaking water bath to determine if any metabolites formed during the 30 minute pre-incubation inhibit the CYP 2D6 enzyme. All incubations were terminated by removing 50 μL of incubation mixture and adding to 200 μL of ice cold acetonitrile containing internal standard. Following precipitation by centrifugation at 3500 rpm and 4° C. for 30 minutes, the resultant supernatant were analyzed by using a multiple reaction monitoring (MRM) LC-MS/MS method detecting for internal standard and the CYP 2D6 enzyme mediated Dextromethorphan O-demethylation metabolite Dextrorphan and IC50 values were determined.
as §1

[5] = biological target: human somatostatin receptor subtype 5 (Homo sapiens, UniProt P35346); assay: cAMP assay for SST5R (inhibition of cAMP via human SST5 receptor); details: for Fold selectivity for SST5 vs SST2: SST5 over SST2, class symbols
[6] = biological target: T4, human somatostatin receptor subtype 4 (Homo sapiens, UniProt P31391); assay: cAMP assay for hSST4R (inhibition of cAMP via human SST4 receptor); assay type: cell-based; details: from inhibition of cAMP via human SST5 receptor and human SST4 receptor
T4 construct: expressed in transfected cells
Source text: cAMP Assay Protocol hSST4R:

[7] = t = 0 min pre-incubation, read-out: CYP2D6 inhibition, IC50 (μM) t = 0 min
[8] = t = 30 min pre-incubation, read-out: CYP2D6 inhibition, IC50 (μM) t = 30 min
[9] = read-out: SST5 potency, inhibition of cAMP via human SST5 receptor, Table B

T3 sequence (P10635 whole entry): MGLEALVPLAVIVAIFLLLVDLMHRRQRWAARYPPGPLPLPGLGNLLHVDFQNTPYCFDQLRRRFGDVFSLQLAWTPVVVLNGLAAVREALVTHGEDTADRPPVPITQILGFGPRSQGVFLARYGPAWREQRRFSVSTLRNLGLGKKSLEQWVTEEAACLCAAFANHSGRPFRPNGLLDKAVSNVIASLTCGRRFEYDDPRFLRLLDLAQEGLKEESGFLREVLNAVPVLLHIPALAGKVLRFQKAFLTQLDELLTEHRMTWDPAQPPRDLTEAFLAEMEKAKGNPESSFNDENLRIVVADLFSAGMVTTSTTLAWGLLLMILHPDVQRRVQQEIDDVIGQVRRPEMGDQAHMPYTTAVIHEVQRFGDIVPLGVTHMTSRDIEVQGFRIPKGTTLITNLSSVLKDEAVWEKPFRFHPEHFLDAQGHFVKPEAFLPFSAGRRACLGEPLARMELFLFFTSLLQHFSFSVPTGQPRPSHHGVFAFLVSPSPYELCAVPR
human somatostatin receptor subtype 5, sequence (P35346 whole entry): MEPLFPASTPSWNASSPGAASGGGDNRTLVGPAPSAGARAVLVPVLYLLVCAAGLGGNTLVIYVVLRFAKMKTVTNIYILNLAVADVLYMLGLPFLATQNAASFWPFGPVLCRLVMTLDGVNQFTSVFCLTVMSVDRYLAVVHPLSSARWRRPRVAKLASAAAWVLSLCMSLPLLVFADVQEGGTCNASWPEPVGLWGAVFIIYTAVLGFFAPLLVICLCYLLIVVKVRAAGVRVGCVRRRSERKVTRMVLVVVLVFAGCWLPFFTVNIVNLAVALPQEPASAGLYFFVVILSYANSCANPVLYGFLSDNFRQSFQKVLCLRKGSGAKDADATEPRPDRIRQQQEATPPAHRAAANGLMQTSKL
T4 sequence (P31391 whole entry): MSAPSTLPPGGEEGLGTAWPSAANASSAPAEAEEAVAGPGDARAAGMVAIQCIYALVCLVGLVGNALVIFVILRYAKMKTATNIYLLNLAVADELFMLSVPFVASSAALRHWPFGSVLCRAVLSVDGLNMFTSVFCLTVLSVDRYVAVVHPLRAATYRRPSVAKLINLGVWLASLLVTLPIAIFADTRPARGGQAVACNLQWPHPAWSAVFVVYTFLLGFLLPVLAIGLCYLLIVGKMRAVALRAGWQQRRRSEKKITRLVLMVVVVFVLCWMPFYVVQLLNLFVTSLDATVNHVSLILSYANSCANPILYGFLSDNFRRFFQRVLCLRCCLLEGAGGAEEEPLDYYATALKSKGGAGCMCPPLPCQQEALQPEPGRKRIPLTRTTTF
T1 sequence (P30874 whole entry): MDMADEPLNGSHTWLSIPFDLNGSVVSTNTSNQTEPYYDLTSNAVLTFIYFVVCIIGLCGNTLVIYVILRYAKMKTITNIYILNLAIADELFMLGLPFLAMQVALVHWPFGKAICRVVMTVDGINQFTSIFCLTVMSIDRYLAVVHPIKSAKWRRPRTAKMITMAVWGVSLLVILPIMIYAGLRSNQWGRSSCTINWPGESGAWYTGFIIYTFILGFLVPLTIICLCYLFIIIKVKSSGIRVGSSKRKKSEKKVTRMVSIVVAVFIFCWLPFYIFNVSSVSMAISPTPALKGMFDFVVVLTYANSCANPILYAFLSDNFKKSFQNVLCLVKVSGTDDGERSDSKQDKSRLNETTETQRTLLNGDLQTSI
T2 sequence (P32745 whole entry): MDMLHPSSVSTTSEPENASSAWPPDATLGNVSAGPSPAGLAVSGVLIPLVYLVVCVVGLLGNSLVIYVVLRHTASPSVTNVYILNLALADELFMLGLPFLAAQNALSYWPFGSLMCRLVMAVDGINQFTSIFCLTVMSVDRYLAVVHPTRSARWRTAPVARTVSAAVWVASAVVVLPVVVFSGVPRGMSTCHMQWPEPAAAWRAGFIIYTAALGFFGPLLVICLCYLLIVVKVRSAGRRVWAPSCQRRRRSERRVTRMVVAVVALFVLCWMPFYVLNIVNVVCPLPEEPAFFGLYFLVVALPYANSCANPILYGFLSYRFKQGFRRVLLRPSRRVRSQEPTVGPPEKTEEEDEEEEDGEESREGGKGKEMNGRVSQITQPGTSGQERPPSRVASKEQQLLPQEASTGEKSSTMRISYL

Row | pEC50 [1] | Fold selectivity for SST5 vs SST3 [2] [fold] | half-life at 1 μM [3] [h] | IC50 [4, 7] [µM] | IC50 [4, 8] [µM] | pEC50 [5] | Fold selectivity for SST5 vs SST2 [5] | pEC50 [5, 9] | Fold selectivity for SST5 vs SST4 [6] [fold] | SMILES
1 | 6.00 to 7.00 | 24 | 2.32 | 5.7 | 5.1 | > 8.00 | +++ (+++=≥500) | > 8.00 |  | Cc1ccnc2nc(-c3cncc(-c4ccc(F)c(C(F)(F)F)c4)c3N3CC[C@](C)(N)C3)[nH]c12 [Compound 2-191, (3S)-1-{3-[4-fluoro-3-(trifluoromethyl)phenyl]-5-{7-methyl-1H-imidazo[4,5-b]pyridin-2-yl}pyridin-4-yl}-3-methylpyrrolidin-3-amine]
2 | 7.00 to 8.00 | 18 | 1.65 | 4.2 | 4.7 | > 8.00 | ++ (++=100 to 499) | > 8.00 |  | Cc1ccnc2nc(-c3cncc(-c4ccc(F)c(Cl)c4)c3N3CC[C@](C)(N)C3)[nH]c12 [Compound 2-192, (3S)-1-[3-(3-chloro-4-fluorophenyl)-5-{7-methyl-1H-imidazo[4,5-b]pyridin-2-yl}pyridin-4-yl]-3-methylpyrrolidin-3-amine]
3 | 6.00 to 7.00 | 6.3 | 0.883 | 7.6 | 6.5 | > 8.00 | ++ (++=100 to 499) | > 8.00 | 0.94 | Cc1cc(F)cc(-c2cncc(-c3nc4cccc(C)c4[nH]3)c2N2CC[C@H](N)C2)c1 [Compound 2-182, (3S)-1-[3-(3-fluoro-5-methylphenyl)-5-(4-methyl-1H-1,3-benzodiazol-2-yl)pyridin-4-yl]pyrrolidin-3-amine]
4 | 7.00 to 8.00 | 5.1 | 2.88 | 4.7 | 1.8 | > 8.00 | + (+=10 to 99) | > 8.00 | 1.0 | Cc1cccc2nc(-c3cncc(-c4cc(F)cc(F)c4)c3N3CC[C@H](N)C3)[nH]c12 [Compound 2-201, (3S)-1-[3-(3,5-difluorophenyl)-5-(4-methyl-1H-1,3-benzodiazol-2-yl)pyridin-4-yl]pyrrolidin-3-amine]
5 | 6.00 to 7.00 | 16 | 0.55 | > 10 | 8.7 | > 8.00 | ++ (++=100 to 499) | > 8.00 |  | Cc1cc(-c2cncc(-c3nc4nccc(C)c4[nH]3)c2N2CC[C@](C)(N)C2)ccc1F [Compound 2-188, (3S)-1-[3-(4-fluoro-3-methylphenyl)-5-{7-methyl-1H-imidazo[4,5-b]pyridin-2-yl}pyridin-4-yl]-3-methylpyrrolidin-3-amine]
6 | 6.00 to 7.00 | 517 | > 11.6 | > 10 | > 10 | > 8.00 | +++ (+++=≥500) | > 8.00 | 109 | C[C@]1(N)CCN(c2c(-c3ccnc(C#N)c3)cncc2-c2nc3c(F)cccc3[nH]2)C1 [Compound 2-162, 4-[(3S)-3-amino-3-methylpyrrolidin-1-yl]-5-(4-fluoro-1H-1,3-benzodiazol-2-yl)-[3,4′-bipyridine]-2′-carbonitrile]

Second part, the molecule before the results:

Row | SMILES | pEC50 [1] | Fold selectivity for SST5 vs SST3 [2] [fold] | half-life at 1 μM [3] [h] | IC50 [4, 7] [µM] | IC50 [4, 8] [µM] | pEC50 [5] | Fold selectivity for SST5 vs SST2 [5] | pEC50 [5, 9] | Fold selectivity for SST5 vs SST4 [6] [fold]
7 | C[C@]1(N)CCN(c2c(-c3ccnc(C(F)(F)F)c3)cncc2-c2nc3c(F)cccc3[nH]2)C1 [Compound 2-186, (3S)-1-[5-(4-fluoro-1H-1,3-benzodiazol-2-yl)-2′-(trifluoromethyl)-[3,4′-bipyridin]-4-yl]-3-methylpyrrolidin-3-amine] | 6.00 to 7.00 | 158 | 5.78 | 5.4 | 1.1 | > 8.00 | +++ (+++=≥500) | > 8.00 | 
8 | Cc1cccc2nc(-c3cncc(-c4cc(F)cc(C(F)(F)F)c4)c3N3CC[C@H](N)C3)[nH]c12 [Compound 2-185, (3S)-1-{3-[3-fluoro-5-(trifluoromethyl)phenyl]-5-(4-methyl-1H-1,3-benzodiazol-2-yl)pyridin-4-yl}pyrrolidin-3-amine] | 6.00 to 7.00 | 6.1 | 1.28 | 9.5 | 2.3 | > 8.00 | ++ (++=100 to 499) | > 8.00 | 1.2
9 | Cc1cccc2nc(-c3cncc(-c4cc(F)cc(Cl)c4)c3N3CC[C@H](N)C3)[nH]c12 [Compound 2-183, (3S)-1-[3-(3-chloro-5-fluorophenyl)-5-(4-methyl-1H-1,3-benzodiazol-2-yl)pyridin-4-yl]pyrrolidin-3-amine] | 6.00 to 7.00 | 6.7 | 1.28 | 6.4 | 3.5 | > 8.00 | ++ (++=100 to 499) | > 8.00 | 4.0
10 | COc1cc(F)cc(-c2cncc(-c3nc4c(C)cccc4[nH]3)c2N2CC[C@H](N)C2)c1 [Compound 2-184, (3S)-1-[3-(3-fluoro-5-methoxyphenyl)-5-(4-methyl-1H-1,3-benzodiazol-2-yl)pyridin-4-yl]pyrrolidin-3-amine] | 6.00 to 7.00 | 7.0 | 0.967 | 4.2 | 2.5 | > 8.00 | ++ (++=100 to 499) | > 8.00 | 1.4
